Assays:
[1] = target: T1, HDAC8 (Homo sapiens, UniProt Q9BY41); conditions: cited from earlier work
T1 sequence (Q9BY41 1-377): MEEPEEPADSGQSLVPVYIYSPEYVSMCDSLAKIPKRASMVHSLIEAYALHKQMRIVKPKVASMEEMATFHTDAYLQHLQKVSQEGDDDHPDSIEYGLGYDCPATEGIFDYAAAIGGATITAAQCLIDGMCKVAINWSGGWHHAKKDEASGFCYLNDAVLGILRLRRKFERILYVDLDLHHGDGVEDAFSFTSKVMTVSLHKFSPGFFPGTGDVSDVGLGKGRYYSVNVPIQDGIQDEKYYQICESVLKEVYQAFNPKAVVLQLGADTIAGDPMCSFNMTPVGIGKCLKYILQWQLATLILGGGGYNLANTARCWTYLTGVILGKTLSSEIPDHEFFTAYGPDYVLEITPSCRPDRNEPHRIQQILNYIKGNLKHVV

[2] = design: method as in PMID 20010553; conditions: cited from earlier work
[3] = system: HEK293T cells; test: CRE promoter-luciferase assay; format: cell-based
Experimental: Supplemental Materials and Methods
2.1. HEK293T cells. HEK293T cells were maintained in Dulbecco’s modified Eagle’s medium (Invitrogen) supplemented with 10% fetal calf serum (Invitrogen). Cultures were maintained in a humidified 5% CO2-95% air atmosphere at 37°C.
2.2. Immunocytochemistry. Cultured hippocampal neurons were fixed with 4% paraformaldehyde for 15 min and permeablized with 0.1% Triton X-100 for 20 min at room temperature (RT). The primary Mouse anti-β III tubulin and anti-actin (Millipore) Abs were added for 1 h at RT. After wash, Alexa Fluor 488 […] Ab (Molecular Probes, Europe BV, Leiden, Netherlands) were incubated with cells for 1 h at RT. Coverslips were mounted, and images were obtained by using a Axio Observer D1 microscope (Zeiss, Jena, Germany). Neuronal process longer than […] is defined as neurites.
2.3. Western blot. […]
The lysate was resolved by 8% SDS-PAGE. […] The protein bands were quantified using the NIH Image J Software. […]
FBS. […] The activity of firefly luciferase was measured as firefly luciferase luminescence after reaction with luciferase reagent for 15 min. Next, the activity of Renilla luciferase is measured as Renilla luciferase luminescence after reaction with Stop & Glo reagent for 15 min.
The ratio of firefly luciferase activity to Renilla luciferase activity was calculated and normalized to vector control.

O=C(CCCCCCC(=O)Nc1ccccc1)NO [SAHA, suberoylanilide hydroxamic acid, reference compound]
inhibition of HDAC8 deacetylase activity [1]: little inhibition of HDAC8 | crossing of the blood-brain barrier [2]: cross the blood-brain barrier (BBB) | CRE-mediated promoter activity [3]: increased
